The text below walks through data of ChEMBL document CHEMBL5390205, “Acidonemycins A-C, Glycosylated Angucyclines with Antivirulence Activity Produced by the Acidic Culture of Streptomyces indonesiensis” (J Nat Prod, 2023).

Active and inactive are the calls of the source. No cut-off for these calls is given here.

What all share (assay type): functional, organism-based
Common to all, as to conditions: dose 0-100 µg/ml

Assay [1] has as its system Staphylococcus aureus. As to the kind of experiment: Antivirulence activity against methicillin-resistant Staphylococcus aureus USA300 LAC assessed as inhibition of delta toxin production incubated for 22 hrs by LC-MS analysis.
Assay [2] relates to Staphylococcus aureus. Put plainly: Antivirulence activity against methicillin-resistant Staphylococcus aureus USA300 LAC assessed as inhibition of biofilm formation incubated for 22 hrs by crystal violet staining based assay.
The subject of assay [3] is Staphylococcus aureus. As to the kind of experiment: Antivirulence activity against methicillin-resistant Staphylococcus aureus USA300 LAC assessed as inhibition of phenol-soluble modulin alpha1-4 production incubated for 22 hrs by LC-MS analysis.

Take `COC(=O)[C@H]1O[C@@H](Oc2cccc3c2C(=O)c2ccc4c(c2C3=O)C(=O)C[C@@H](C)C4)[C@H](O)[C@@H](O)[C@@H]1O`: the Activity entry in the assay with Staphylococcus aureus [1], in the assay on Staphylococcus aureus [2] and in the assay on Staphylococcus aureus [3] was “Dose-Dependent Effect” throughout.

On to `COC(=O)[C@H]1O[C@@H](Oc2cccc3c2C(=O)O[C@H]3c2c(O)ccc3c2C(=O)C[C@@H](C)C3)[C@H](O)[C@@H](O)[C@@H]1O`, for which the outcome in the assay on Staphylococcus aureus [1], with Staphylococcus aureus [2] and in the assay on Staphylococcus aureus [3] was inactive.

With `C[C@@H]1CC(=O)c2c(ccc3c2C(=O)c2cccc(O[C@@H]4O[C@H](C(=O)O)[C@@H](O)[C@H](O)[C@H]4O)c2C3=O)C1`, the Activity result with Staphylococcus aureus [1], in the assay with Staphylococcus aureus [2] and in the assay on Staphylococcus aureus [3] was “Dose-Dependent Effect” each time.
